Laboratory results from ChEMBL document CHEMBL1147043, “Comparative metabolism of radiolabeled muraglitazar in animals and humans by quantitative and qualitative metabolite profiling” (Drug Metab Dispos, 2007).

Key:
[1] = Biodistribution in orally dosed human feces assessed as 12-hydroxy muraglitazar level by LC/MS analysis; format: ADME, organism-based; settings: in vivo, po
Rattus norvegicus [2] = assay: Biodistribution in orally dosed Sprague-Dawley rat feces assessed as 17-hydroxy muraglitazar level by LC/MS analysis; format: ADME, organism-based; settings: in vivo, po, pooled result: one value given for 6 cell lines, strains, targets or settings
Rattus norvegicus [3] = assay: Biodistribution in orally dosed Sprague-Dawley rat urine assessed as muraglitazar glucuronide level by LC/MS analysis; format: ADME, organism-based; settings: in vivo, po
[4] = Biodistribution in orally dosed Beagle dog feces assessed as O-demethyl muraglitazar level by LC/MS analysis; format: ADME, organism-based, Canis lupus familiaris; settings: in vivo, po
[5] = Biodistribution in orally dosed cynomolgus monkey urine assessed as O-demethyl muraglitazar level by LC/MS analysis; format: ADME, organism-based, Macaca fascicularis; settings: in vivo, po
Hepatocyte [6] = assay: Metabolic stability in Sprague-Dawley rat hepatocytes assessed as 8,12-dihydroxy muraglitazar level by LC/MS analysis relative to control; format: ADME, cell-based
Hepatocyte [7] = assay: Metabolic stability in Sprague-Dawley rat hepatocytes assessed as 12-hydroxy muraglitazar level by LC/MS analysis relative to control; format: ADME, cell-based
[8] = Metabolic stability in cynomolgus monkey hepatocytes assessed as 12-hydroxy-O-demethyl muraglitazar level by LC/MS analysis relative to control; format: ADME, cell-based, Macaca fascicularis, Hepatocyte
[9] = Metabolic stability in cynomolgus monkey hepatocytes assessed as muraglitazar 12-carboxylic acid level by LC/MS analysis relative to control; format: ADME, cell-based, Macaca fascicularis, Hepatocyte
[10] = Metabolic stability in cynomolgus monkey hepatocytes assessed as O-demethyl muraglitazar glucuronide level by LC/MS analysis relative to control; format: ADME, cell-based, Macaca fascicularis, Hepatocyte
[11] = Metabolic stability in cynomolgus monkey hepatocytes assessed as O-dealkyl-O-demethyl muraglitazar level by LC/MS analysis relative to control; format: ADME, cell-based, Macaca fascicularis, Hepatocyte
[12] = Metabolic stability in cynomolgus monkey hepatocytes assessed as di-oxygenated muraglitazar level by LC/MS analysis relative to control; format: ADME, cell-based, Macaca fascicularis, Hepatocyte
[13] = Biodistribution in orally dosed human feces assessed as muraglitazar glucuronide level by LC/MS analysis; format: ADME, organism-based; settings: in vivo, po
[14] = Biodistribution in orally dosed cynomolgus monkey feces assessed as 9-hydroxy muraglitazar level by LC/MS analysis; format: ADME, organism-based, Macaca fascicularis; settings: in vivo, po
[15] = Biodistribution in orally dosed cynomolgus monkey feces assessed as acetylimide derivative of muraglitazar level by LC/MS analysis; format: ADME, organism-based, Macaca fascicularis; settings: in vivo, po
[16] = Metabolic stability in CD1 mouse hepatocytes assessed as 8,12-dihydroxy muraglitazar level by LC/MS analysis relative to control; format: ADME, cell-based, Hepatocyte
[17] = Metabolic stability in CD1 mouse hepatocytes assessed as 8-hydroxy muraglitazar level by LC/MS analysis relative to control; format: ADME, cell-based, Hepatocyte
[18] = Metabolic stability in CD1 mouse hepatocytes assessed as muraglitazar glucuronide level by LC/MS analysis relative to control; format: ADME, cell-based, Hepatocyte
[19] = Metabolic stability in CD1 mouse hepatocytes assessed as O-dealkyl-O-demethyl muraglitazar level by LC/MS analysis relative to control; format: ADME, cell-based, Hepatocyte
Hepatocyte [20] = assay: Metabolic stability in Sprague-Dawley rat hepatocytes assessed as hydroxyl-O-demethyl muraglitazar glucuronide level by LC/MS analysis relative to control; format: ADME, cell-based
[21] = Biodistribution in orally dosed human feces assessed as 9-hydroxy-O-demethyl muraglitazar level by LC/MS analysis; format: ADME, organism-based; settings: in vivo, po
[22] = Biodistribution in orally dosed Beagle dog feces assessed as 12,17-dihydroxy muraglitazar level by LC/MS analysis; format: ADME, organism-based, Canis lupus familiaris; settings: in vivo, po
[23] = Biodistribution in orally dosed cynomolgus monkey urine assessed as 12-hydroxy muraglitazar level by LC/MS analysis; format: ADME, organism-based, Macaca fascicularis; settings: in vivo, po
[24] = Drug concentration in bile duct-cannulated cynomolgus monkey urine assessed as recovery of radioactive dose at 5 mg/kg, po after 48 hrs; format: ADME, organism-based, Macaca fascicularis; parameters: dose 5 mg/kg, route oral; settings: in vivo
[25] = Drug concentration in human urine assessed as recovery of radioactive dose at 10 mg, po after 240 hrs; format: ADME, organism-based; settings: in vivo
[26] = Drug concentration in human feces assessed as recovery of radioactive dose at 10 mg, po after 240 hrs; format: ADME, organism-based; settings: in vivo
[27] = Drug concentration in human urine assessed as recovery of radioactive dose at 20 mg, po after 240 hrs; format: ADME, organism-based; settings: in vivo
[28] = Drug concentration in cynomolgus monkey urine at 1.9 mg/kg, po after 12 hrs; format: ADME, organism-based, Macaca fascicularis; parameters: dose 1.9 mg/kg, route oral; settings: read-out: Drug uptake
[29] = Drug concentration in bile duct-cannulated Sprague-Dawley rat bile at 10 mg/kg, po after 24 hrs; format: ADME, organism-based; parameters: dose 10 mg/kg, route oral; settings: in vivo
Rattus norvegicus [30] = assay: Cmax in Sprague-Dawley rat at 10 mg/kg, po after 24 hrs; format: ADME, organism-based; parameters: dose 10 mg/kg, route oral; settings: in vivo
Plasma [31] = assay: Biodistribution in orally dosed cynomolgus monkey plasma assessed as muraglitazar glucuronide level after 4 hrs by LC/MS analysis; format: ADME, organism-based, Macaca fascicularis; settings: in vivo, po
Plasma [32] = assay: Biodistribution in orally dosed cynomolgus monkey plasma assessed as muraglitazar glucuronide level after 12 hrs by LC/MS analysis; format: ADME, organism-based, Macaca fascicularis; settings: in vivo, po
Plasma [33] = assay: Biodistribution in orally dosed Sprague-Dawley rat plasma assessed as O-demethyl muraglitazar level after 4 hrs by LC/MS analysis; format: ADME, organism-based; settings: in vivo, po
Plasma [34] = assay: Biodistribution in orally dosed Beagle dog plasma assessed as O-demethyl muraglitazar level after 4 hrs by LC/MS analysis; format: ADME, organism-based, Canis lupus familiaris; settings: in vivo, po
Plasma [35] = assay: Biodistribution in orally dosed Beagle dog plasma assessed as O-demethyl muraglitazar level after 12 hrs by LC/MS analysis; format: ADME, organism-based, Canis lupus familiaris; settings: in vivo, po
Plasma [36] = assay: Biodistribution in orally dosed cynomolgus monkey plasma assessed as […] muraglitazar level after 12 hrs by LC/MS analysis; format: ADME, organism-based, Macaca fascicularis; settings: in vivo, po
Plasma [37] = assay: Biodistribution in orally dosed human plasma assessed as […] muraglitazar level after 4 hrs by LC/MS analysis; format: ADME, organism-based; settings: in vivo, po
Plasma [38] = assay: Biodistribution in orally dosed Beagle dog plasma assessed as 12-dihydroxy muraglitazar level after 12 hrs by LC/MS analysis; format: ADME, organism-based, Canis lupus familiaris; settings: in vivo, po
Plasma [39] = assay: Biodistribution in orally dosed Beagle dog plasma assessed as 17-dihydroxy muraglitazar level after 1 hr by LC/MS analysis; format: ADME, organism-based, Canis lupus familiaris; settings: in vivo, po
Plasma [40] = assay: Biodistribution in orally dosed cynomolgus monkey plasma assessed as 17-dihydroxy muraglitazar level after 12 hrs by LC/MS analysis; format: ADME, organism-based, Macaca fascicularis; settings: in vivo, po
Plasma [41] = assay: Biodistribution in orally dosed cynomolgus monkey plasma assessed as O-demethyl muraglitazar glucuronide level after 12 hrs by LC/MS analysis; format: ADME, organism-based, Macaca fascicularis; settings: in vivo, po
Rattus norvegicus [42] = assay: Biodistribution in orally dosed Sprague-Dawley rat urine assessed as O-dealkyl muraglitazar level by LC/MS analysis; format: ADME, organism-based; settings: in vivo, po
Plasma [43] = assay: Biodistribution in orally dosed cynomolgus monkey plasma assessed as 12-hydroxy-O-demethyl muraglitazar level after 4 hrs by LC/MS analysis; format: ADME, organism-based, Macaca fascicularis; settings: in vivo, po
Plasma [44] = assay: Biodistribution in orally dosed Sprague-Dawley rat plasma assessed as 17-hydroxy-O-demethyl muraglitazar level after 12 hrs by LC/MS analysis; format: ADME, organism-based; settings: in vivo, po
Plasma [45] = assay: Biodistribution in orally dosed cynomolgus monkey plasma assessed as 12,17-dihydroxy muraglitazar level after 1 hr by LC/MS analysis; format: ADME, organism-based, Macaca fascicularis; settings: in vivo, po
Rattus norvegicus [46] = assay: Biodistribution in orally dosed Sprague-Dawley rat urine assessed as 9-hydroxy-O-demethyl muraglitazar level by LC/MS analysis; format: ADME, organism-based; settings: in vivo, po
Canis familiaris = assay: AUC (0 to T) in Beagle dog at 2 mg/kg, po after 4 hrs; format: ADME, organism-based, Canis lupus familiaris, Plasma; parameters: time < 4 hr, dose 2 mg/kg, route oral; settings: in vivo
Cynomolgus monkey = assay: Cmax in cynomolgus monkey at 1.9 mg/kg, po after 24 hrs; format: ADME, organism-based, Macaca fascicularis; parameters: dose 1.9 mg/kg, route oral; settings: in vivo
Homo sapiens = assay: Cmax in human at 10 mg, po after 72 hrs; format: ADME, organism-based; parameters: dose 10 mg, route oral; settings: in vivo
[47] = Bile excretion of compound in bile duct-cannulated orally dosed Sprague-Dawley rat within 24 hrs; format: ADME, organism-based; settings: po, read-out: Activity
[48] = Biodistribution in orally dosed Beagle dog urine assessed as O-dealkyl muraglitazar level by LC/MS analysis; format: ADME, organism-based, Canis lupus familiaris; settings: in vivo, po
[49] = Biodistribution in orally dosed cynomolgus monkey feces assessed as 8,12-dihydroxy muraglitazar level by LC/MS analysis; format: ADME, organism-based, Macaca fascicularis; settings: in vivo, po

## COc1ccc(OC(=O)N(CC(=O)O)Cc2ccc(OCCc3nc(-c4ccccc4)oc3C)cc2)cc1 [MURAGLITAZAR]
[1]
  Drug uptake: 8.2%
Rattus norvegicus [2]
  Drug uptake: 0.88%
Rattus norvegicus [3]
  Drug uptake: < 0.01%
[4]
  Drug uptake: 24.92%
[5]
  Drug uptake: 0.08%
Hepatocyte [6]
  Drug uptake: < 0.2%
Hepatocyte [7]
  Drug uptake: 1.3%
[8]
  Drug uptake: < 0.2%
[9]
  Drug uptake: 13%
[10]
  Drug uptake: < 0.2%
[11]
  Drug uptake: < 0.2%
[12]
  Drug uptake: 1.3%
[13]
  Drug uptake: 0.06%
[14]
  Drug uptake: 0.56%
[15]
  Drug uptake: 0.16%
[16]
  Drug uptake: 0.3%
[17]
  Drug uptake: 0.3%
[18]
  Drug uptake: 5.2%
[19]
  Drug uptake: 5.7%
Hepatocyte [20]
  Drug uptake: < 0.2%
[21]
  Drug uptake: 2.21%
[22]
  Drug uptake: 0.89%
[23]
  Drug uptake: 0.04%
[24]
  Drug uptake: 5%
[25]
  Drug uptake: 2.6%
[26]
  Drug uptake: 61.6%
[27]
  Drug uptake: 3.7%
[28]
  dose excreted at 12 h: 1.7%
[29]
  Drug uptake: 0.289 mgequiv/ml
Rattus norvegicus [30]
  Cmax: 13.5 ugequiv/ml
Plasma [31]
  Drug uptake: 0.2%
Plasma [32]
  Drug uptake: 0.1%
Plasma [33]
  Drug uptake: 2.1%
Plasma [34]
  Drug uptake: 3%
Plasma [35]
  Drug uptake: 9%
Plasma [36]
  Drug uptake: 1%
Plasma [37]
  Drug uptake: < 0.05%
Plasma [38]
  Drug uptake: 9%
Plasma [39]
  Drug uptake: < 0.05%
Plasma [40]
  Drug uptake: 21.4%
Plasma [41]
  Drug uptake: 0.4%
Rattus norvegicus [42]
  Drug uptake: 0.22%
Plasma [43]
  Drug uptake: 2.9%
Plasma [44]
  Drug uptake: < 0.05%
Plasma [45]
  Drug uptake: 1%
Rattus norvegicus [46]
  Drug uptake: 0.43%
Canis familiaris
  AUC: 1.1 ugequiv.h/ml
Cynomolgus monkey
  Cmax: 7.1 ugequiv/ml
Homo sapiens
  Cmax: 1.4 ugequiv/ml
[47]
  dose excreted at 24 h: 65%
[48]
  Drug uptake: 0.44%
[49]
  Drug uptake: 2.41%
